# Test system: LPS-induced TNF-α release
# Assay: inhibition of LPS-induced TNF-α release from THP1 cells (TNF-α by ELISA)
# Format: cell-based
# Details: Homo sapiens, THP-1, LPS 2 mg/ml, 0.5 hour preincubation with compound, 3 hours at 37° C. with LPS, read-out: IC50 (concentration of test compound which brings about 50% inhibition of LPS-induced TNF-α release)
# Description: Aliquots (200 μl) of the cell suspension were plated out on 96 well culture plates and incubated for 0.5 hour at 37° C. prior to the addition of the test compounds. The latter were dissolved in dimethyl sulphoxide (DMSO) to a stock concentration of 1.2 mM which was diluted with phosphate buffered saline/10% DMSO solution to provide test compounds in final concentrations of 10^-9 to 10^-5 M, with each concentration being tested in duplicate. The cells were incubated with the test compounds for 0.5 hour at 37° C., LPS (bacterial lipopolysaccharide) was then added to a concentration of 2 mg/ml and incubation was continued for 3 hours at 37° C. in an atmosphere containing 5% CO2 and at 95% relative humidity. After centrifugation at 260 g for 10 minutes an aliquot of each supernatant was removed and the amount of TNF-α was estimated by ELISA (R & D Systems Europe Ltd., Abingdon, England).
smiles,measurement,value
"CC(C)C[C@@H](C(=O)NN1C(=O)CNC1=O)[C@H](C/C=C/c1ccccc1)C(=O)NO [Compound A, (E)-2(R)-[1(S)-(Hydroxycarbamoyl)-4-phenyl-3-butenyl]-4-methyl-N-(2,5-dioxo-1-imidazolidinyl)valeramide]",IC50,280 nM
"CC(C)C[C@@H](C(=O)NN1C(=O)CCNC1=O)[C@H](C/C=C/c1ccccc1)C(=O)NO [Compound B, (E)-N-(Hexahydro-2,6-dioxo-1-pyrimidinyl)-2(R)-[1(S)-(hydroxycarbamoyl)-4-phenyl-3-butenyl]-4-methylvaleramide]",IC50,382 nM
"CC(C)C[C@@H](C(=O)NN1C(=O)CNC1=O)[C@H](CCCC1CCCCC1)C(=O)NO [Compound C, 2(R)-[4-Cyclohexyl-1(S)-(hydroxycarbamoyl)butyl]-4-methyl-N-(2,5-dioxo-1-imidazolidinyl)valeramide]",IC50,242 nM
"CC(C)C[C@@H](C(=O)NN1C(=O)NCCS1(=O)=O)[C@H](C/C=C/c1ccccc1)C(=O)NO [Compound D, (E)-N-(Tetrahydro-3-oxo-2H-1,2,4-thiadiazin-2-yl)-2(R)-[1(S)-(hydroxycarbamoyl)-4-phenyl-3-butenyl]-4-methylvaleramide S,S-dioxide]",IC50,389 nM
"CC(C)C[C@@H](C(=O)NN1C(=O)CNCC1=O)[C@H](CCCc1ccccc1)C(=O)NO [Compound E, 2(R)-[1(S)-(Hydroxycarbamoyl)-4-phenylbutyl]-4-methyl-N-(2,6-dioxo-1-piperazinyl)valeramide p-toluenesulphonate]",IC50,1450 nM
"CC(C)C[C@@H](C(=O)NN1C(=O)N[C@@H](C(C)C)C1=O)[C@H](CCCc1ccccc1)C(=O)NO [Compound F, 2(R)-[1(S)-(Hydroxycarbamoyl)-4-phenylbutyl]-N-(4(S)-isopropyl-2,5-dioxo-1-imidazolidinyl)-4-methylvaleramide]",IC50,156 nM
CC[C@H](C)[C@@H]1NC(=O)N(NC(=O)[C@H](CC(C)C)[C@H](CCCc2ccccc2)C(=O)NO)C1=O [Compound G],IC50,147 nM
"CSCC[C@@H]1NC(=O)N(NC(=O)[C@H](CC(C)C)[C@H](CCCc2ccccc2)C(=O)NO)C1=O [Compound H, 2(R)-[1(S)-(Hydroxycarbamoyl)-4-phenylbutyl]-4-methyl-N-[4(S)-[2-(methylthio)ethyl]-2,5-dioxo-1-imidazolidinyl]valeramide]",IC50,234 nM
"CC(C)C[C@@H](C(=O)NN1C(=O)N[C@@H](CO)C1=O)[C@H](CCCc1ccccc1)C(=O)NO [Compound I, 2(R)-[1(S)-(Hydroxycarbamoyl)-4-phenylbutyl]-N-[4(S)-(hydroxymethyl)-2,5-dioxo-1-imidazolidinyl]-4-methylvaleramide]",IC50,387 nM
"CC(C)C[C@@H](C(=O)NN1C(=O)[C@H](C(C)C)NC1=S)[C@H](CCCc1ccccc1)C(=O)NO [Compound J, 2(R)-[1(S)-(Hydroxycarbamoyl)-4-phenylbutyl]-N-(4(S)-isopropyl-5-oxo-2-thioxo-1-imidazolidinyl)-4-methylvaleramide]",IC50,597 nM
"CC[C@H](C)[C@@H]1NC(=O)N(NC(=O)[C@H](CC(C)C)[C@H](C/C=C/c2ccccc2)C(=O)NO)C1=O [Compound K, (E)-2(R)-[1(S)-(Hydroxycarbamoyl)-4-phenyl-3-butenyl]-N-[4(S)-(1(S)-methylpropyl)-2,5-dioxo-1-imidazolidinyl]-4-methylvaleramide]",IC50,162 nM
"CC(C)C[C@@H](C(=O)NN1C(=O)N[C@@H](CO)C1=O)[C@H](C/C=C/c1ccccc1)C(=O)NO [Compound L, (E)-2(R)-[1(S)-(Hydroxycarbamoyl)-4-phenyl-3-butenyl]-N-[4(S)-(hydroxymethyl)-2,5-dioxo-1-imidazolidinyl]-4-methylvaleramide]",IC50,302 nM
"CC(C)C[C@@H](C(=O)NN1C(=O)NC2(CCN(C(=O)OCc3ccccc3)CC2)C1=O)[C@H](CCCc1ccccc1)C(=O)NO [Compound M, Benzyl 3-[2(R)-[1(S)-(hydroxycarbamoyl)-4-phenylbutyl]-4-methylvaleramido]-2,4-dioxo-1,3,8-triazaspiro[4,5]decane-8-carboxylate]",IC50,620 nM
"CC(C)C[C@@H](C(=O)Nn1c(=O)[nH]c2ccsc2c1=O)[C@H](CCCc1ccccc1)C(=O)NO [Compound N, N-(1,2,3,4-Tetrahydro-2,4-dioxothieno[3,2-d]pyrimidin-3-yl)-2(R)-[1(S)-(hydroxycarbamoyl)-4-phenylbutyl]-4-methylvaleramide]",IC50,172 nM
"CC(C)C[C@@H](C(=O)Nn1c(=O)[nH]c2cscc2c1=O)[C@H](CCCc1ccccc1)C(=O)NO [Compound O, N-(1,2,3,4-Tetrahydro-2,4-dioxothieno[3,4-d]pyrimidin-3-yl)-2(R)-[1(S)-(hydroxycarbamoyl)-4-phenylbutyl]-4-methylvaleramide]",IC50,177 nM
COC[C@@H]1NC(=O)N(NC(=O)[C@H](CC(C)C)[C@H](CCCc2ccccc2)C(=O)NO)C1=O [Compound P],IC50,346 nM
"CC(C)C[C@@H](C(=O)NN1C(=O)CNC1=O)[C@H](CCCc1ccccc1)C(=O)NO [Compound Q, 2(R)-[1(S)-(Hydroxycarbamoyl)-4-phenylbutyl]-4-methyl-N-(2,5-dioxo-1-imidazolidinyl)valeramide]",IC50,234 nM
"CC(=O)N1CCC2(CC1)NC(=O)N(NC(=O)[C@H](CC(C)C)[C@H](CCCc1ccccc1)C(=O)NO)C2=O [Compound R, 1-(8-Acetyl-2,4-dioxo-1,3,8-triazaspiro[4. 5]decan-3-yl)-2(R)-[1(S)-(hydroxycarbamoyl)-4-phenylbutyl]-4-methylvaleramide]",IC50,481 nM
"CC(C)C[C@@H](C(=O)NN1C(=O)CNC1=O)[C@H](Cc1ccc(-c2ccccc2)cc1)C(=O)NO [Compound S, 2(R)-[2-(4-Biphenylyl)-1(S)-(hydroxycarbamoyl)ethyl]-N-(2,5-dioxo-1-imidazolidinyl)-4-methylvaleramide]",IC50,308 nM

# — patent US6281363A, “Cyclic hydrazine derivatives” (Hoffmann-La Roche Inc., priority 1998, dated 2001)
